Laboratory results reported in patent US9150575B2, “Piperidinylpyrazolopyridine derivative” (Daiichi Sankyo Company, Limited, priority 2012, dated 2015).

Each compound was assayed against T1, LCAT (Homo sapiens, UniProt P04180) (assay: LCAT Activity Measurement (In Vitro)). Conditions: EC50 of LCAT activation; HDL3 fraction from plasma of a healthy person as enzyme source and acceptor; [14C]cholesterol; 37° C., approximately 16 hours.
T1 construct: The obtained fraction was dialyzed against phosphate-buffered saline (pH 7.4) and used as an enzyme source and an acceptor for LCAT; from tissue; host or cells: HDL3 fraction (1.125<specific gravity<1.210 g/mL) of plasma from a healthy person
T1 sequence (P04180 25-440): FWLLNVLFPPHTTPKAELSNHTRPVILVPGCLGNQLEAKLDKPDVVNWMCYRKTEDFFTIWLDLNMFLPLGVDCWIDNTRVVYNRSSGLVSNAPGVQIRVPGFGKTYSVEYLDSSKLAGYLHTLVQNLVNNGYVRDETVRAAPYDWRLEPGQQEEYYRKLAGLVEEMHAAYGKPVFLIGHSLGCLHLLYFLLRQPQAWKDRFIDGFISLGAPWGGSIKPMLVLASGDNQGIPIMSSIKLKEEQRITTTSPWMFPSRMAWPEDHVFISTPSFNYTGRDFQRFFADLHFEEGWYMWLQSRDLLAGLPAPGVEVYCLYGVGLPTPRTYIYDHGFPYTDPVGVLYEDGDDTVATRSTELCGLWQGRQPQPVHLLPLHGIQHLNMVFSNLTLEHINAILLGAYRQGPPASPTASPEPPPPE
Assay type: biochemical
Procedure: A fraction composed of HDL3 (1.125<specific gravity<1.210 g/mL) was obtained from the plasma of a healthy person by density gradient centrifugation. The obtained fraction was dialyzed against phosphate-buffered saline (pH 7.4) and used as an enzyme source and an acceptor for LCAT. Each test drug was prepared by dissolution in dimethyl sulfoxide. [14C]Cholesterol containing DTNB (Ellman's reagent, final concentration: 0.5 mM), mercaptoethanol (final concentration: 12.5 mM), and 0.6% bovine serum albumin was added to phosphate-buffered saline (pH 7.4) containing 1 mg/mL HDL3, and the test drug was further added thereto at varying concentrations to adjust the whole amount to 80 μL. This mixture was incubated at 37° C. for approximately 16 hours. Then, a mixed solution of hexane and isopropanol (mixing ratio=3:2) was added thereto to stop the reaction. After stirring, the hexane layer was collected, and this layer was evaporated to dryness. A chloroform solution (concentration: 10 mg/mL) was added thereto, and the mixture was spotted onto a thin-layer silica gel plate and developed using a mixed solution of hexane, diethyl ether, and ethyl acetate (mixing ratio=85:15:2). The radioactivity of a portion corresponding to cholesterol oleate was measured using an imaging analyzer BAS-2500 (manufactured by Fujifilm Corp.). A sample non-supplemented with the test drug was similarly treated and assayed. The EC50 value of LCAT activation was calculated according to the expression given below relative to LCAT activity in the sample non-supplemented with the test drug.
wherein X represents the logarithm of the concentration of the test drug;
Y represents the responsiveness (LCAT activity) of the test drug;
Top represents the maximum value (maximum plateau);
Bottom represents the minimum value (minimum plateau); and
EC50 represents the 50% effective concentration.
`N#Cc1cccc(N2CCC(c3n[nH]c4c3C(O)(C(F)(F)F)CC(=O)N4)CC2)n1` (stereo not drawn) [Example 22, 6-{4-[4-Hydroxy-6-oxo-4-(trifluoromethyl)-4,5,6,7-tetrahydro-1H-pyrazolo[3,4-b]pyridin-3-yl]piperidin-1-yl}pyridine-2-carbonitrile] showed an EC50 of 0.18 µM. With `O=C1CC(O)(C(F)(F)F)c2c(C3CCN(c4nc5ccccc5s4)CC3)n[nH]c2N1` (stereo not drawn) [Example 25, 3-[1-(1,3-Benzothiazol-2-yl)piperidin-4-yl]-4-hydroxy-4-(trifluoromethyl)-1,4,5,7-tetrahydro-6H-pyrazolo[3,4-b]pyridin-6-one] the EC50 was 0.2 µM. `Cc1cccnc1N1CCC(c2n[nH]c3c2C(O)(C(F)(F)F)CC(=O)N3)CC1` (stereo not drawn) [Example 6, 4-Hydroxy-3-[1-(3-methylpyridin-2-yl)piperidin-4-yl]-4-(trifluoromethyl)-1,4,5,7-tetrahydro-6H-pyrazolo[3,4-b]pyridin-6-one] was tested, and the EC50 was 1.26 µM. `O=C1CC(O)(C(F)(F)F)c2c(C3CCN(c4ccc(OC(F)F)nc4)CC3)n[nH]c2N1` (stereo not drawn) [Example 54, 3-{1-[6-(Difluoromethoxy)pyridin-3-yl]piperidin-4-yl}-4-hydroxy-4-(trifluoromethyl)-1,4,5,7-tetrahydro-6H-pyrazolo[3,4-b]pyridin-6-one] gave an EC50 of 0.07 µM. For `COc1ccc(N2CCC(c3n[nH]c4c3C(O)(C(F)(F)F)CC(=O)N4)CC2)nc1` (stereo not drawn) [Example 36, 4-Hydroxy-3-[1-(5-methoxypyridin-2-yl)piperidin-4-yl]-4-(trifluoromethyl)-1,4,5,7-tetrahydro-6H-pyrazolo[3,4-b]pyridin-6-one], the EC50 was 0.42 µM. `O=C1CC(O)(C(F)(F)F)c2c(C3CCN(c4nc(C(F)(F)F)cs4)CC3)n[nH]c2N1` (stereo not drawn) [Compound 48-a, 4-Hydroxy-4-(trifluoromethyl)-3-{1-[4-(trifluoromethyl)-1,3-thiazol-2-yl]piperidin-4-yl}-1,4,5,7-tetrahydro-6H-pyrazolo[3,4-b]pyridin-6-one] was tested, and the EC50 was 0.08 µM. `O=C1CC(O)(C(F)(F)F)c2c(C3CCN(c4ccc(OC5CCC5)nc4)CC3)n[nH]c2N1` (stereo not drawn) [Example 61, 3-{1-[6-(Cyclobutoxy)pyridin-3-yl]piperidin-4-yl}-4-hydroxy-4-(trifluoromethyl)-1,4,5,7-tetrahydro-6H-pyrazolo[3,4-b]pyridin-6-one] was tested, and the EC50 was 0.1 µM. In the case of `N#Cc1ccc(N2CCC(c3n[nH]c4c3C(O)(C(F)(F)F)CC(=O)N4)CC2)nc1` (stereo not drawn) [Example 31, 6-{4-[4-Hydroxy-6-oxo-4-(trifluoromethyl)-4,5,6,7-tetrahydro-1H-pyrazolo[3,4-b]pyridin-3-yl]piperidin-1-yl}pyridine-3-carbonitrile], the EC50 is reported as 0.33 µM. Compound `O=C1CC(O)(C(F)(F)F)c2c(C3CCN(c4cc(I)c(C(F)(F)F)cn4)CC3)n[nH]c2N1` (single isomer, unassigned) [Compound 103-2, 4-hydroxy-3-{1-[4-iodo-5-(trifluoromethyl)pyridin-2-yl]piperidin-4-yl}-4-(trifluoromethyl)-1,4,5,7-tetrahydro-6H-pyrazolo[3,4-b]pyridin-6-one] has an EC50 of 0.53 µM. Work on `CC(C)c1cc(N2CCC(c3n[nH]c4c3C(O)(C(F)(F)F)CC(=O)N4)CC2)nc(C(C)C)n1` (stereo not drawn) [Example 75, 3-{1-[2,6-di(Propan-2-yl)pyrimidin-4-yl]piperidin-4-yl}-4-hydroxy-4-(trifluoromethyl)-1,4,5,7-tetrahydro-6H-pyrazolo[3,4-b]pyridin-6-one] yielded an EC50 of 0.22 µM. Work on `O=C1CC(O)(C(F)(F)F)c2c(C3CCN(c4ccc(OC(F)F)cc4)CC3)n[nH]c2N1` (single isomer, unassigned; (+)) [Compound 56-2, (+)-3-{1-[4-(difluoromethoxy)phenyl]piperidin-4-yl}-4-hydroxy-4-(trifluoromethyl)-1,4,5,7-tetrahydro-6H-pyrazolo[3,4-b]pyridin-6-one] yielded an EC50 of 0.98 µM. `O=C1CC(O)(C(F)(F)F)c2c(C3CCN(c4ccc(OC(F)(F)F)cc4)CC3)n[nH]c2N1` (stereo not drawn) [Example 58, 4-Hydroxy-3-{1-[4-(trifluoromethoxy)phenyl]piperidin-4-yl}-4-(trifluoromethyl)-1,4,5,7-tetrahydro-6H-pyrazolo[3,4-b]pyridin-6-one] was tested, and the EC50 was 0.02 µM. Compound `O=C1CC(O)(C(F)(F)F)c2c(C3CCN(c4ccccn4)CC3)n[nH]c2N1` (stereo not drawn) [Example 2, 4-Hydroxy-3-[1-(pyridin-2-yl)piperidin-4-yl]-4-(trifluoromethyl)-1,4,5,7-tetrahydro-6H-pyrazolo[3,4-b]pyridin-6-one] has an EC50 of 0.52 µM. `O=C1CC(O)(C(F)(F)F)c2c(C3CCN(c4nc(-c5ccccc5)cs4)CC3)n[nH]c2N1` (stereo not drawn) [Example 90, 4-Hydroxy-3-[1-(4-phenyl-1,3-thiazol-2-yl)piperidin-4-yl]-4-(trifluoromethyl)-1,4,5,7-tetrahydro-6H-pyrazolo[3,4-b]pyridin-6-one] was tested, and the EC50 was 0.31 µM. Compound `O=C1CC(O)(C(F)(F)F)c2c(C3CCN(c4nnc(C(F)(F)F)s4)CC3)n[nH]c2N1` (stereo not drawn) [Example 47, 4-Hydroxy-4-(trifluoromethyl)-3-{1-[5-(trifluoromethyl)-1,3,4-thiadiazol-2-yl]piperidin-4-yl}-1,4,5,7-tetrahydro-6H-pyrazolo[3,4-b]pyridin-6-one] has an EC50 of 0.096 µM. `O=C1CC(O)(C(F)(F)F)c2c(C3CCN(c4ccc(F)cn4)CC3)n[nH]c2N1` (stereo not drawn) [Example 15, 3-[1-(5-Fluoropyridin-2-yl)piperidin-4-yl]-4-hydroxy-4-(trifluoromethyl)-1,4,5,7-tetrahydro-6H-pyrazolo[3,4-b]pyridin-6-one] was tested, and the EC50 was 0.25 µM. `O=C1CC(O)(C(F)(F)F)c2c(C3CCN(c4cnc(C(F)(F)F)nc4)CC3)n[nH]c2N1` (stereo not drawn) [Example 65, 4-Hydroxy-4-(trifluoromethyl)-3-{1-[2-(trifluoromethyl)pyrimidin-5-yl]piperidin-4-yl}-1,4,5,7-tetrahydro-6H-pyrazolo[3,4-b]pyridin-6-one] gave an EC50 of 0.013 µM. Compound `N#Cc1ccc(N2CCC(c3n[nH]c4c3C(O)(C(F)(F)F)CC(=O)N4)CC2)nc1Cl` (stereo not drawn) [Example 21, 2-Chloro-6-{4-[4-hydroxy-6-oxo-4-(trifluoromethyl)-4,5,6,7-tetrahydro-1H-pyrazolo[3,4-b]pyridin-3-yl]piperidin-1-yl}pyridine-3-carbonitrile] has an EC50 of 0.27 µM. In the case of `O=C1CC(O)(C(F)(F)F)c2c(C3CCN(c4ncccc4C(F)(F)F)CC3)n[nH]c2N1` (stereo not drawn) [Example 9, 4-Hydroxy-4-(trifluoromethyl)-3-{1-[3-(trifluoromethyl)pyridin-2-yl]piperidin-4-yl}-1,4,5,7-tetrahydro-6H-pyrazolo[3,4-b]pyridin-6-one], the EC50 is reported as 1.15 µM. `COc1ccc(N2CCC(c3n[nH]c4c3C(O)(C(F)(F)F)CC(=O)N4)CC2)nn1` (stereo not drawn) [Example 28, 4-Hydroxy-3-[1-(6-methoxypyridazin-3-yl)piperidin-4-yl]-4-(trifluoromethyl)-1,4,5,7-tetrahydro-6H-pyrazolo[3,4-b]pyridin-6-one] gave an EC50 of 0.3 µM. In the case of `O=C1CC(O)(C(F)(F)F)c2c(C3CCN(c4cc(C(F)(F)F)ncn4)CC3)n[nH]c2N1` (stereo not drawn) [Example 45, 4-Hydroxy-4-(trifluoromethyl)-3-{1-[6-(trifluoromethyl)pyrimidin-4-yl]piperidin-4-yl}-1,4,5,7-tetrahydro-6H-pyrazolo[3,4-b]pyridin-6-one], the EC50 is reported as 0.14 µM. `O=C1CC(O)(C(F)(F)F)c2c(C3CCN(c4ccccc4)CC3)n[nH]c2N1` (stereo not drawn) [Example 1, 4-Hydroxy-3-(1-phenylpiperidin-4-yl)-4-(trifluoromethyl)-1,4,5,7-tetrahydro-6H-pyrazolo[3,4-b]pyridin-6-one] was tested, and the EC50 was 1.51 µM. Work on `N#Cc1cnc(N2CCC(c3n[nH]c4c3C(O)(C(F)(F)F)CC(=O)N4)CC2)cn1` (stereo not drawn) [Example 78, 5-{4-[4-Hydroxy-6-oxo-4-(trifluoromethyl)-4,5,6,7-tetrahydro-1H-pyrazolo[3,4-b]pyridin-3-yl]piperidin-1-yl}pyrazine-2-carbonitrile] yielded an EC50 of 0.22 µM. `O=C1CC(O)(C(F)(F)F)c2c(C3CCN(c4cc(C(F)(F)F)nc(C5CC5)n4)CC3)n[nH]c2N1` (stereo not drawn) [Example 92, 3-{1-[2-Cyclopropyl-6-(trifluoromethyl)pyrimidin-4-yl]piperidin-4-yl}-4-hydroxy-4-(trifluoromethyl)-1,4,5,7-tetrahydro-6H-pyrazolo[3,4-b]pyridin-6-one] was tested, and the EC50 was 0.21 µM.
